Structures are written as SMILES. Bridge positions count the residues as written; N and C are the ends. Square brackets hold non-standard residues; d marks the D form. Peptide text beside a SMILES is read from it. * marks the point of attachment. hPhe(3,5-F2-4-CF3) = N[C@@H](CCc1cc(F)c(C(F)(F)F)c(F)c1)C(=O)O; NMeAbu(3,3-F2-piperidino) = CN[C@@H](CCN1CCCC(F)(F)C1)C(=O)O; hPhe(3-Cl-4-CF3) = N[C@@H](CCc1ccc(C(F)(F)F)c(Cl)c1)C(=O)O; hPhe(3-F,4-CF3) = N[C@@H](CCc1ccc(C(F)(F)F)c(F)c1)C(=O)O; NMePhe(4-CF3) = CN[C@@H](Cc1ccc(C(F)(F)F)cc1)C(=O)O; Piperazinyl(4-(3-oxetanyl)) = C1OCC1N1CCN(*)CC1; NMeAbu(4,4,4-F3) = CN[C@@H](CC(F)(F)F)C(=O)O; NMePhe(2-Cl) = CN[C@@H](Cc1ccccc1Cl)C(=O)O; NMeGly(cPent) = CN[C@H](C(=O)O)C1CCCC1; Phe(3-I) = N[C@@H](Cc1cccc(I)c1)C(=O)O; Pro(4,4-F2) = O=C(O)[C@@H]1CC(F)(F)CN1; NMe3Pal = CN[C@@H](Cc1cccnc1)C(=O)O; NMeGly(cBu) = CN[C@H](C(=O)O)C1CCC1; NMeY = CN[C@@H](Cc1ccc(O)cc1)C(=O)O; Pip(4-oxo) = O=C1CCN[C@H](C(=O)O)C1; NMeCha = CN[C@@H](CC1CCCCC1)C(=O)O; NMeGly(cPr) = CN[C@H](C(=O)O)C1CC1; NMeChg = CN[C@H](C(=O)O)C1CCCCC1; NMeF = CN[C@@H](Cc1ccccc1)C(=O)O; NMeI = CC[C@H](C)[C@H](NC)C(=O)O; NMeD = CN[C@@H](CC(=O)O)C(=O)O; NMeL = CN[C@@H](CC(C)C)C(=O)O; NMehSer = CN[C@@H](CCO)C(=O)O; NMeV = CN[C@H](C(=O)O)C(C)C; d(β3hA) = C[C@@H](N)CC(=O)O; NMeA = CN[C@@H](C)C(=O)O; Piperidide = C1CCN(*)CC1; Pyrrolidide = C1CCN(*)C1; Ac5c = NC1(C(=O)O)CCCC1; Aze = O=C(O)[C@@H]1CCN1; Sar = CNCC(=O)O A value given as a limit tells only on which side of the number the result lay.

This assay has as its system Human pancreatic cancer cell line AsPC-1 (G12D mutation Kras). Nature of the assay: AsPC-1 cell growth inhibition (AsPC-1 CGI). It is filed as cell-based. The following applies: read-out: AsPC-1 cell growth inhibition, 50% growth inhibitory concentration (IC50 value); 96 hours, CellTiter-Glo, values classified in ranges. For orientation: Cellular ATP, detected with luciferase, serves as a proxy for viable cell number.
Description: Test compounds were serially dilated with dimethyl sulfoxide, and 200 nL was then dispensed to a U-bottom 96-well plate using Labcyte Echo. […] The cell suspension was dispensed to a. plate containing a test compound at 100 μL per well and incubated at 37° C. in a 5% carbon dioxide gas incubator. 96 hours later, 80 μL of CellTiter-Glo (Promega) was added to each well and fluorescence was measured.
For the compound `CC[C@H](C)[C@@H]1NC(=O)[C@H](CC(C)C)N(C)C(=O)C[C@@H](C)NC(=O)[C@H](C(C)C)N(C)C(=O)C2(CCCC2)NC(=O)[C@@H]2CCCN2C(=O)[C@H](CCc2ccc(C(F)(F)F)c(Cl)c2)NC(=O)CN(C)C(=O)[C@H](Cc2ccccc2Cl)N(C)C(=O)CN(C)C(=O)CN(C)C1=O` [Compound 1591] (cyclo([Ac5c][NMeV][d(β3hA)][NMeL]I[Sar][Sar][NMePhe(2-Cl)][Sar][hPhe(3-Cl-4-CF3)]P)), the IC50 was > 500 nM.
The same measure for `CC[C@H](C)[C@@H]1NC(=O)[C@H](CC(C)C)N(C)C(=O)C[C@@H](C(=O)N2CCCCC2)N(C)C(=O)[C@H](C2CCCC2)N(C)C(=O)C2(CCCC2)NC(=O)[C@@H]2CCCN2C(=O)[C@H](CCc2ccc(C(F)(F)F)c(F)c2)NC(=O)CN(C)C(=O)[C@H](C2CCCC2)N(C)C(=O)[C@@H]2CCN2C(=O)[C@H](C)N(C)C1=O` [Compound 1099] ([NMeL]I[NMeA][Aze][NMeGly(cPent)][Sar][hPhe(3-F,4-CF3)]P[Ac5c][NMeGly(cPent)][NMeD]-Piperidide; lactam N-11): ≤ 20 nM.
Consider `CC[C@H](C)[C@@H]1NC(=O)[C@H](CC(C)C)N(C)C(=O)C[C@@H](C(=O)N2CCN(C3COC3)CC2)NC(=O)[C@H]([C@@H](C)CC)N(C)C(=O)C2(CCCC2)NC(=O)[C@@H]2CCCN2C(=O)[C@H](CCc2ccc(C(F)(F)F)c(Cl)c2)NC(=O)CN(C)C(=O)[C@H](CC2CCCCC2)N(C)C(=O)CN(C)C(=O)CN(C)C1=O` [Compound 1191] ([NMeL]I[Sar][Sar][NMeCha][Sar][hPhe(3-Cl-4-CF3)]P[Ac5c][NMeI]D-{Piperazinyl(4-(3-oxetanyl))}; lactam N-11), for which the IC50 was > 500 nM.
Next, `CC[C@H](C)[C@@H]1NC(=O)[C@H](CC(C)C)N(C)C(=O)C[C@@H](C(=O)N2CCCCC2)N(C)C(=O)[C@H](CCOC)N(C)C(=O)C2(CCCC2)NC(=O)[C@@H]2CCCN2C(=O)[C@H](CCc2ccc(C(F)(F)F)c(Cl)c2)NC(=O)CN(C)C(=O)[C@H](CC2CCCCC2)N(C)C(=O)[C@@H]2CCN2C(=O)[C@H](C)N(C)C1=O` [Compound 141] ([NMeL]I[NMeA][Aze][NMeCha][Sar][hPhe(3-Cl-4-CF3)]P[Ac5c][NMehSer](Me)[NMeD]-Piperidide; lactam N-11): > 500 nM; `CC[C@H](C)[C@@H]1NC(=O)[C@H](CC(C)C)N(C)C(=O)C[C@@H](C(=O)N2CCCCC2)N(C)C(=O)[C@H](C(C)C)N(C)C(=O)C2(CCCC2)NC(=O)[C@@H]2CCCN2C(=O)[C@H](CCc2ccc(C(F)(F)F)c(Cl)c2)NC(=O)CN(C)C(=O)[C@H](CC2CCCCC2)N(C)C(=O)[C@@H]2CCN2C(=O)[C@H](C2CC2)N(C)C1=O` [Compound 1553] ([NMeL]I[NMeGly(cPr)][Aze][NMeCha][Sar][hPhe(3-Cl-4-CF3)]P[Ac5c][NMeV][NMeD]-Piperidide; lactam N-11): > 500 nM.
The same measure for `CC[C@H](C)[C@@H]1NC(=O)[C@H](C2CCC2)N(C)C(=O)C[C@@H](C(=O)N2CCCC2)N(C)C(=O)[C@H](C2CCCCC2)N(C)C(=O)C2(CCCC2)NC(=O)[C@@H]2CC(F)(F)CN2C(=O)[C@H](CCc2cc(F)c(C(F)(F)F)c(F)c2)NC(=O)CN(C)C(=O)[C@H](CC2CCCCC2)N(C)C(=O)CN(C)C(=O)CN(C)C1=O` [Compound 1295] ([NMeGly(cBu)]I[Sar][Sar][NMeCha][Sar][hPhe(3,5-F2-4-CF3)][Pro(4,4-F2)][Ac5c][NMeChg][NMeD]-Pyrrolidide; lactam N-11): ≤ 20 nM.
The same measure for `CC[C@H](C)[C@@H]1NC(=O)[C@H](C)N(C)C(=O)C[C@@H](C(=O)N2CCCCC2)N(C)C(=O)[C@H](C(C)C)N(C)C(=O)C2(CCCC2)NC(=O)[C@H](CCN2CCCC(F)(F)C2)N(C)C(=O)[C@H](CCc2ccc(C(F)(F)F)c(Cl)c2)NC(=O)CN(C)C(=O)[C@H](CC2CCCCC2)N(C)C(=O)[C@@H]2CCN2C(=O)[C@H](C)N(C)C1=O` [Compound 682] ([NMeA]I[NMeA][Aze][NMeCha][Sar][hPhe(3-Cl-4-CF3)][NMeAbu(3,3-F2-piperidino)][Ac5c][NMeV][NMeD]-Piperidide; lactam N-11): > 500 nM; for `CC[C@H](C)[C@@H]1NC(=O)[C@H](C)N(C)C(=O)C[C@@H](C(=O)N2CCCC2)N(C)C(=O)[C@H](CC(C)C)NC(=O)[C@H](Cc2ccccc2)N(C)C(=O)[C@H](C)NC(=O)[C@H](Cc2cccc(I)c2)NC(=O)CN(C)C(=O)[C@H](Cc2ccc(OC)cc2)N(C)C(=O)[C@@H]2CCN2C(=O)[C@H](C)N(C)C1=O` [Compound 604] ([NMeA]I[NMeA][Aze][NMeY](Me)[Sar][Phe(3-I)]A[NMeF]L[NMeD]-Pyrrolidide; lactam N-11): > 500 nM.
For `CC[C@H](C)[C@@H]1NC(=O)[C@H](CC(C)C)N(C)C(=O)C[C@@H](C(=O)N2CCCCC2)N(C)C(=O)[C@H](C2CCCCC2)N(C)C(=O)C2(CCCC2)NC(=O)[C@H](CC(=O)O)N(C)C(=O)[C@H](CCc2ccc(C(F)(F)F)c(Cl)c2)NC(=O)CN(C)C(=O)[C@H](CC2CCCCC2)N(C)C(=O)CN(C)C(=O)CN(C)C1=O` [Compound 688] ([NMeL]I[Sar][Sar][NMeCha][Sar][hPhe(3-Cl-4-CF3)][NMeD][Ac5c][NMeChg][NMeD]-Piperidide; lactam N-11), the IC50 is > 500 nM.
The same measure for `CC[C@H](C)[C@@H]1NC(=O)[C@H](CC(C)C)N(C)C(=O)C[C@@H](C(=O)N2CCCCC2)N(C)C(=O)[C@H](C2CCCCC2)N(C)C(=O)C2(CCCC2)NC(=O)[C@@H]2CC(=O)CCN2C(=O)[C@H](CCc2ccc(C(F)(F)F)c(Cl)c2)NC(=O)CN(C)C(=O)[C@H](CC2CCCCC2)N(C)C(=O)CN(C)C(=O)CN(C)C1=O` [Compound 1089] ([NMeL]I[Sar][Sar][NMeCha][Sar][hPhe(3-Cl-4-CF3)][Pip(4-oxo)][Ac5c][NMeChg][NMeD]-Piperidide; lactam N-11): > 500 nM.
As for `CC[C@H](C)[C@@H]1NC(=O)[C@H](CC(C)C)N(C)C(=O)C[C@@H](C(=O)N2CCCCC2)N(C)C(=O)[C@H](C2CCCCC2)N(C)C(=O)C2(CCCC2)NC(=O)[C@H](Cc2cccnc2)N(C)C(=O)[C@H](CCc2ccc(C(F)(F)F)c(Cl)c2)NC(=O)CN(C)C(=O)[C@H](CC2CCCCC2)N(C)C(=O)CN(C)C(=O)CN(C)C1=O` [Compound 63] ([NMeL]I[Sar][Sar][NMeCha][Sar][hPhe(3-Cl-4-CF3)][NMe3Pal][Ac5c][NMeChg][NMeD]-Piperidide; lactam N-11), the IC50 was > 500 nM.
Next, `CC[C@H](C)[C@@H]1NC(=O)[C@H](C)N(C)C(=O)C[C@@H](C)NC(=O)[C@H](C(C)C)N(C)C(=O)C2(CCCC2)NC(=O)[C@@H]2CCCN2C(=O)[C@H](CCc2ccc(C(F)(F)F)c(Cl)c2)NC(=O)CN(C)C(=O)[C@H](CC2CCCCC2)N(C)C(=O)CN(C)C(=O)CN(C)C1=O` [Compound 697] (cyclo([Ac5c][NMeV][d(β3hA)][NMeA]I[Sar][Sar][NMeCha][Sar][hPhe(3-Cl-4-CF3)]P)): > 500 nM.
The same measure for `CC[C@H](C)[C@@H]1NC(=O)[C@H](CC(F)(F)F)N(C)C(=O)C[C@@H](C(=O)N2CCCC2)N(C)C(=O)[C@H](C2CCCCC2)N(C)C(=O)C2(CCCC2)NC(=O)[C@@H]2CC(F)(F)CN2C(=O)[C@H](CCc2cc(F)c(C(F)(F)F)c(F)c2)NC(=O)CN(C)C(=O)[C@H](Cc2ccc(C(F)(F)F)cc2)N(C)C(=O)CN(C)C(=O)CN(C)C1=O` [Compound 1303] ([NMeAbu(4,4,4-F3)]I[Sar][Sar][NMePhe(4-CF3)][Sar][hPhe(3,5-F2-4-CF3)][Pro(4,4-F2)][Ac5c][NMeChg][NMeD]-Pyrrolidide; lactam N-11): ≤ 20 nM.

The values above are taken from patent publication US20240148821A1, “PHARMACEUTICAL USE OF CYCLIC PEPTIDE COMPOUND” (CHUGAI SEIYAKU KABUSHIKI KAISHA, priority 2021, published 2024).
